Tests used:
[1] = system: M1 central muscarinic cholinergic receptors; experiment: Antagonism of rotations induced by intrastriatal injection of pirenzepine in mice; type: in vivo, mice (Swiss, CD 1); details: for Pirenzepine antagonism ED50 i.p.: 15 minutes before intrastriatal pirenzepine 1 μg; for Pirenzepine antagonism ED50 p.o.: 30 minutes before intrastriatal pirenzepine 1 μg
Description: Pirenzepine (PZ) is a specific antagonist of the M1 central muscarinic cholinergic receptors. The intrastriatal injection of PZ into mice induces rotatory behavoir. The antagonism of this behavoir by the products according to the invention was studied.
The products according to the invention are administered either intraperitoneally (i.p.) or orally (p.o.) after solubilization in distilled water or suspension in a 5% solution of gum arabic. The control animals receive the pure solvent under the same conditions.
The animals used are female mice (Swiss, CD 1, Charles River, France) with a body weight of between 25 and 30 grams.
The pirenzepine is dissolved in a phosphate buffer and the pH of the solution is 6.
The test products or their solvents are administered in a volume of 0.4 ml per 20 g of body weight, either by i.p. injection or orally via an esophageal tube.
The number of contralateral rotations (rotations in the opposite direction to the side injected) was counted for three 2-minute periods after injection of the pirenzepine: 2nd to 4th, 8th to 10th and 13th to 15th minutes. Each treatment consists of 3 to 4 doses and 10 animals per dose. The total number of rotations and the percentage antagonism with respect to the control group are calculated for each treatment.

[2] = Acute toxicity, 24 hours mortality after i.p. administration to mice; details: mouse, in vivo, ip, female mice, 20 g
Description: Finally, the acute toxicity was determined for various products according to the invention. The products were administered intraperitoneally in increasing doses to groups of 10 female mice (Swiss, CD 1, Charles River, France) with a body weight of 20 g.

[3] = molecular target: T1, M1 -type muscarinic cholinergic receptor (Rattus norvegicus, UniProt P08482); experiment: biochemical; type: binding; details: for IC50: rat hippocampus homogenate, 3H-PZ 1 nM, 2 hours at 4° C., pH 7.40, read-out: IC50 3H-PZ (M1); for ratio R of the IC50 values for the M1 and M2 receptors: selectivity, values correspond to IC50 M2 / IC50 M1
T1 sequence (P08482 1-460): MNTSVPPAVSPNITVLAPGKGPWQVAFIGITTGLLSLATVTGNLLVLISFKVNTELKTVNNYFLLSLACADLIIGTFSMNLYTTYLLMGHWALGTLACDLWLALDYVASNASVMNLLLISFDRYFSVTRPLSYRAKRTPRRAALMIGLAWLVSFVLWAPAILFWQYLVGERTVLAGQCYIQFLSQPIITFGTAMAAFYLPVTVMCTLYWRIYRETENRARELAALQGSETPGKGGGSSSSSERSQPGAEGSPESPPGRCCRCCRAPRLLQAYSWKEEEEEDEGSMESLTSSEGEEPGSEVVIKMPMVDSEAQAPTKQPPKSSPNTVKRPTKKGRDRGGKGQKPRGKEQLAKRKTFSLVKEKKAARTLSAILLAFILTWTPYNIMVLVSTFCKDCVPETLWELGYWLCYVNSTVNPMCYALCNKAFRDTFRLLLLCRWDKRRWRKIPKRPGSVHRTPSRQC
Description: The interaction of the molecules with the M1 -type muscarinic receptors was studied by in vitro measurement, on a rat hippocampus homogenate, of the displacement of tritiated pirenzepine from its specific binding sites. Aliquots (10 μl) of a 5% (w/v) rat hippocampus homogenate in an Na2 HPO4 buffer (50 mM, pH 7.40) are incubated for 2 hours at 4° C. in the presence of ^3 H-PZ (76 Ci/mmol; final concentration 1 nM) and increasing concentrations of the test product. The final volume is 2 ml. The reaction is stopped by centrifugation for 10 minutes at 50,000×g. After decantation and washing of the residues, the bound radioactivity is counted by liquid scintillation. The non-specific binding is determined in the presence of 10 μM atropine sulfate.

[4] = molecular target: T2, M2 -type muscarinic cholinergic receptor (Cavia porcellus, UniProt H0VRN8); experiment: Affinity for the M2-type muscarinic cholinergic receptor, displacement of tritiated N-methylscopolamine (3H-NMS) on smooth guinea-pig ileum muscle homogenate; type: binding; details: guinea-pig ileum smooth muscle homogenate, 3H-NMS 0.3 nM, 20 minutes at 30° C., pH 7.5; read-out: IC50 3H-NMS (M2)
T2 construct: on a smooth guinea-pig ileum muscle homogenate; from tissue; host or cells: guinea-pig ileum smooth muscle homogenate
T2 sequence (H0VRN8 1-466): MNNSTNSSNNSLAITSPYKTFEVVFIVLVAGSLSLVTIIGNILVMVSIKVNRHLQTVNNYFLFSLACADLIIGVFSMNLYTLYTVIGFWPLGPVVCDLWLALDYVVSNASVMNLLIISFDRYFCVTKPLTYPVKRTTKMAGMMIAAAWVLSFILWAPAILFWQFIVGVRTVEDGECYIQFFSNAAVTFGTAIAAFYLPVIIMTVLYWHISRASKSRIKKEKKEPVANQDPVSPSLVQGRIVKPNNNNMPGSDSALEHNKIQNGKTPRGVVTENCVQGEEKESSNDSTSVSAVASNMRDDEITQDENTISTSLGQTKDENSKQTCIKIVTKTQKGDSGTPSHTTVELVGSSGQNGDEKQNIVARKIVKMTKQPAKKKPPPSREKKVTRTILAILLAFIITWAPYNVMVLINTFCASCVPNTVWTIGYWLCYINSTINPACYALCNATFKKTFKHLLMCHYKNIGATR
Description: The M1 -type receptors are concentrated in certain regions of the brain, such as the hippocampus, the cerebral cortex and the striatum, and also in the sympathetic ganglia. These binding sites can be selectively labeled with tritiated pirenzepine (^3 H-PZ). The M2 -type receptors predominate in the heart and the ileum and can be labeled with tritiated N-methyl-scopolamine (^3 H-NMS). The selectivity of the products of the invention with respect to the M1 and M2 sites was determined by studying their in vitro interaction with ^3 H-PZ and ^3 H-NMS firmly bound with a high affinity to rat hippocampus membranes and smooth guinea-pig ileum muscle, respectively.
The interaction with the M2 -type muscarinic receptors was studied by in vitro measurement, on a smooth guinea-pig ileum muscle homogenate, of the displacement of tritiated N-methylscopolamine from its specific binding sites. […] The final volume is 1 ml. The reaction is stopped by centrifugation for 5 minutes at 15,000×g. The non-specific binding is determined in the presence of 10 mM atropine sulfate.
The IC50 for ^3 H-PZ displacement represents the affinity for the M1 receptor; the IC50 for ^3 H-NMS displacement represents the affinity for the M2 receptor.

## c1ccc(-c2csc(NCCN3CCOCC3)n2)cc1 [SR 44244 A]
[1]
  Pirenzepine antagonism ED50 i.p.: 8 mg/kg
  Pirenzepine antagonism ED50 p.o.: 20 mg/kg
[2]
  LD50 at 24 h: 250 mg/kg

## c1ccc(-c2csc(NCCCN3CCOCC3)n2)cc1 [SR 44284 A]
[3]
  IC50: 8 µM
  ratio R of the IC50 values for the M1 and M2 receptors: 5
[1]
  Pirenzepine antagonism ED50 i.p.: 8 mg/kg
[4]
  IC50: 40 µM
[2]
  LD50 at 24 h: 450 mg/kg

## CCN(CC)CCNc1nc(-c2ccccc2)cs1 [SR 44286 A]
[3]
  IC50: 6 µM
  ratio R of the IC50 values for the M1 and M2 receptors: 16
[1]
  Pirenzepine antagonism ED50 i.p.: 3 mg/kg
  Pirenzepine antagonism ED50 p.o.: 10 mg/kg
[4]
  IC50: 100 µM
[2]
  LD50 at 24 h: 200 mg/kg

## CN(C)CCCNc1nc(-c2ccccc2)cs1 [SR 44345 A]
[3]
  IC50: 1 µM
  ratio R of the IC50 values for the M1 and M2 receptors: 70
[1]
  Pirenzepine antagonism ED50 i.p.: 0.5 mg/kg
  Pirenzepine antagonism ED50 p.o.: 1 mg/kg
[4]
  IC50: 70 µM
[2]
  LD50 at 24 h: 200 mg/kg

## CCN(CC)CCCNc1nc(-c2c(C)cc(C)cc2C)cs1 [SR 44347 A]
[3]
  IC50: 0.35 µM
  ratio R of the IC50 values for the M1 and M2 receptors: 37
[1]
  Pirenzepine antagonism ED50 i.p.: 0.03 mg/kg
  Pirenzepine antagonism ED50 p.o.: 0.20 mg/kg
[4]
  IC50: 13 µM
[2]
  LD50 at 24 h: 60 mg/kg

## CCN(CC)CCNc1nc(-c2c(C)cc(C)cc2C)cs1 [SR 44372 A]
[3]
  IC50: 0.12 µM
  ratio R of the IC50 values for the M1 and M2 receptors: 41
[1]
  Pirenzepine antagonism ED50 i.p.: 1 mg/kg
  Pirenzepine antagonism ED50 p.o.: 3 mg/kg
[4]
  IC50: 5 µM
[2]
  LD50 at 24 h: 75 mg/kg

## CCN(CC)CCCNc1nc(C)c(-c2ccccc2)s1 [SR 44373 A]
[3]
  IC50: 0.7 µM
  ratio R of the IC50 values for the M1 and M2 receptors: 21
[1]
  Pirenzepine antagonism ED50 i.p.: 0.3 mg/kg
  Pirenzepine antagonism ED50 p.o.: 1 mg/kg
[4]
  IC50: 15 µM
[2]
  LD50 at 24 h: 75 mg/kg

## CCN(CC)CCCNc1nc(-c2ccccc2)cs1 [SR 44374 A]
[3]
  IC50: 0.4 µM
  ratio R of the IC50 values for the M1 and M2 receptors: 20
[1]
  Pirenzepine antagonism ED50 i.p.: 3 mg/kg
[4]
  IC50: 8 µM
[2]
  LD50 at 24 h: 150 mg/kg

— patent publication US5378706A, “Fused-thiazole derivatives active on the cholinergic system, and pharmaceutical compositions containing same” (Sanofi, priority 1987, dated 1995)
